Legend:
[1] = system: Maize (variety: A188) immature embryos; test: Effect of auxin type in coculture medium on Agrobacterium-mediated transformation efficiency (GUS-positive plants / inoculated immature embryos); format: cell-based; conditions: for transformation efficiency / transformation efficiency relative to control (2,4-D), in words: auxin 1.5 mg/l in coculture medium, Agrobacterium LBA4404 (pSB131); for transformation efficiency: coculture in the dark at 25° C. for 7 days, 33 to 35 immature embryos per test
Text: (§1) Transformation efficiency can be determined by any calculation method commonly used by those skilled in the art, for example, can be determined from a value calculated by dividing the number of transformed plants by the number of Agrobacterium-inoculated explants.
(§2) FIG. 1 is a graph showing the effect of auxin type in a coculture medium on transformation efficiency in maize. 33 to 35 immature embryos were provided for each test. The vertical axis represents the transformation efficiency (calculated by dividing the number of GUS-positive plants obtained in each test by the number of inoculated immature embryos), while the horizontal axis represents the type of auxin contained in the coculture medium. The auxin concentration in the coculture medium was set to 1.5 mg/l for each test.
Maize (variety: A188) immature embryos (1.0 to 1.5 mm in size) at 7 to 14 days after pollination were aseptically collected and washed once with LS-inf liquid medium (Non-patent Publication No. 11), followed by pretreatment (thermal treatment at 46° C. for 3 minutes and centrifugation at 15,000 rpm for 10 minutes) to increase gene transfer efficiency. In LS-inf liquid medium containing 100 μM acetosyringone, Agrobacterium strain LBA4404 (pSB131) (Non-patent Publication No. 11) was suspended at about 1.0×10^9 cfu/ml to prepare an inoculum. The thermally-treated and centrifuged immature embryos were mixed with the inoculum, vortexed for 30 seconds, and then allowed to stand for 5 minutes at room temperature. The Agrobacterium-inoculated immature embryos were placed, with their embryonic discs facing up, onto a coculture medium containing 2,4,5-T (2,4,5-trichlorophenoxyacetic acid), picloram (4-amino-3,5,6-trichloropicolinic acid), TIBA (2,3,5-triiodobenzoic acid) or dicamba at a concentration of 1.5 mg/l in IS-AS medium (Non-patent Publication No. 11; solidified with 8 g/l agarose) which had been prepared to exclude 2,4-D and contain 5 μM AgNO3 and 5 μM CuSO4. A control medium was prepared to contain 5 μM AgNO3 and 5 μM CuSO4 in LS-AS medium (solidified with 8 g/l agarose).
The immature embryos cultured in the dark at 25° C. for 7 days were placed onto LSD1.5 medium (Non-patent Publication No. 11) containing 5 μM AgNO3, 5 mg/l phosphinothricin (PPT), 250 mg/l carbenicillin and 100 mg/l cefotaxime, and then cultured in the dark at 25° C. for 10 days. The immature embryos were transferred to the same medium, except that the PPT concentration was set to 10 mg/l, and cultured under the same conditions for 3 weeks. The grown calli were excised with a surgical knife, placed onto a fresh medium of the same composition, and cultured under the same conditions for 3 weeks. The grown calli were excised, placed onto LSZ medium (Non-patent Publication No. 11) containing 10 μM CuSO4 and 5 mg/l PPT, and cultured in the light at 25° C. for about 2 weeks. Along with determining the number of immature embryos which regenerated into whole plants, leaves of the regenerated plants were partially excised, immersed in 0.1 M phosphate buffer (pH 6.8) containing 0.1% Triton X-100 and allowed to stand at 37° C. for 1 hour. The phosphate buffer was removed and then replaced with another phosphate buffer containing 1.0 mM 5-bromo-4-chloro-3-indolyl-β-D-glucuronic acid (X-gluc) and 20% methanol. After incubation at 37° C. for 24 hours, GUS gene expression was examined.

[2] = system: immature embryos (variety: A188); test: Effect of dicamba and 2,4-D in coculture medium on transformation efficiency (drop inoculation); format: cell-based, Maize; conditions: for transformation efficiency: auxin 1.5 mg/l in coculture medium, Agrobacterium LBA4404 (U0009B) with hydroxyapatite, 25 to 26 immature embryos per test
Text: as §1
as §2, with “FIG. 3” for “FIG. 1”, “in maize (drop inoculation). 25” for “in maize. 33”, “to 26” for “to 35”
The vector U0009B shown in FIG. 2 and SEQ ID NO: 1 was constructed by adding necessary elements to a vector having pSB11 (Non-patent Publication No. 27) as a skeletal structure. An inoculum (1 ml) of Agrobacterium strain LBA4404 (U0009B) prepared in the same manner as shown in Example 1 was supplemented with about 80 mg of hydroxyapatite (Bio-Rad). […] A control medium was prepared to contain 5 μM AgNO3 and 5 μM CuSO4 in LS-AS medium (solidified with 8 g/l agarose). After shaking with a vortex mixer to ensure a uniformly dispersed state of hydroxyapatite in the inoculum, 5 μl of the inoculum was added dropwise onto the immature embryos. After the inoculum added dropwise was dried, the immature embryos were transferred to another site on the same medium. After the culture container was sealed, coculture was performed in the dark at 25° C. for 7 days. The cocultured immature embryos were cultured in the same manner as shown in Example 1 to obtain regenerated plants, along with examining GUS gene expression in leaves of the regenerated plants.

maize immature embryos = conditions: 15 μM dicamba vs 4.5 μM 2,4-D; cited from earlier work
maize = conditions: 15 μM dicamba vs 6.75 μM 2,4-D; media also differ in other components (silver nitrate); cited from earlier work

Row | SMILES | transformation efficiency [1] | transformation efficiency [2] | transformation efficiency relative to control (2,4-D), in words [1] | further results
1 | O=C(O)COc1ccc(Cl)cc1Cl [2,4-D, 2,4-dichlorophenoxyacetic acid] | 20.6% | 11.5% |  | 
2 | COc1c(Cl)ccc(Cl)c1C(=O)O [dicamba, 3,6-dichloro-o-anisic acid] | 27.3% | 28.0% |  | increase in the transformation efficiency compared to the conventional method using 2,4-D ([1]; dicamba 1.5 mg/l in coculture medium, 27.3/20.6): 1.33 fold; increase in the transformation efficiency compared to the conventional method using 2,4-D ([2]; dicamba 1.5 mg/l, 28.0/11.5): 2.43 fold; formation rate of calli having regeneration ability, compared to 2,4-D (maize immature embryos): increased; transformation efficiency, dicamba medium vs 2,4-D medium (maize): higher
3 | O=C(O)c1cc(I)cc(I)c1I [TIBA, 2,3,5-triiodobenzoic acid] |  |  | produced no transformed plant | 
4 | Nc1c(Cl)c(Cl)nc(C(=O)O)c1Cl [picloram, 4-amino-3,5,6-trichloropicolinic acid] |  |  | lower than that of the control | 
5 | O=C(O)COc1cc(Cl)c(Cl)cc1Cl [2,4,5-T, 2,4,5-trichlorophenoxyacetic acid] |  |  | lower than that of the control | 
